Laboratory results published in patent US9844546B2, “Antibody against human HIF hydroxylase” (OXFORD UNIVERSITY INNOVATION LIMITED, priority 2001, dated 2017).
Read-outs that look alike come from different tables or passages of the source.

B1: NODD: HIF-1α amino terminal ODD polypeptide (aa 343-417) with nuclear localisation sequences and c-myc tag, plasmid expressed (protein, UniProt Q16665 343-417, looked up, fragment)
chain: SGIIQHDLIFSLQQTECVLKPVESSDMKMTQLFTKVESEDTSSLFDKLKKEPDALTLLAPAAGDTIISLDFGSND
modifications: NLS and c-myc tag

What was measured:
clavaminate synthase = experiment: Clavaminate synthase inhibition under standard assay conditions; assay type: biochemical, Streptomyces clavligerus
Text: These are commonly methyl or ethyl esters although others are possible.

[1] = tested on: HIF hydroxylase (HPH activity); experiment: HIF hydroxylase (HPH) inhibition, statements of the description; assay type: biochemical
[2] = tested on: HIF-α prolyl-hydroxylase (HIF-PH) of cell extract; experiment: Modifying activity (HIF-PH) of cell extract on HIF substrate (Gal/HIF-1α549-582/VP16 or 19:WT), pVHL capture assay; assay type: biochemical, mammalian
Description: The unlabelled HIF-1α substrate was immunopurified on beads, washed, and aliquots incubated under different test conditions in buffer or cell extract. After further washing, the beads were assayed for ability to interact with 35-S labelled pVHL IVTT (21) which was then visualised by fluorography.
The capture of labelled pVHL by different HIF substrates was monitored after exposure to various test conditions.
We went on to test a series of 2-oxoglutarate analogues which act as competitive inhibitors of this class of enzyme (29) for ability to inhibit HIF-PH as assessed by the ability of cell extracts to modify either HIF polypeptide (19:WT) or a HIF fusion protein (Gal/HIF-1α549-582/VP16) so as to promote pVHL capture. […] In one such experiment the effect of N-oxalylglycine on pVHL capture by a biotinylated HIF polypeptides as substrate was monitored. The WT:19 and 19:Pro564Hyp polypeptides described above were used as substrates. […] The effect of dimethyl-oxalyglycine on HIF-1α expression was also studied. HIF-1α immunoblot analysis of extracts of Hep3B and U2OS cells exposed to dimethyl-oxalylgylcine (0, 0.1 or 1.0 mM) for 6 hours was carried out. […]

[3] = molecular target: T1, HIF-1/VHL-1 interaction promoting activity of worm extract (Caenorhabditis elegans, UniProt G5EBV0); experiment: Worm extract modification of C. elegans HIF-1, HA.VHL-1 interaction assay; assay type: biochemical; details: antagonized by 5 mM 2-OG
T1 construct: from tissue; host or cells: whole-worm homogenate in hypotonic extraction buffer
Description: Assays for interaction between recombinant VHL and HIF polypeptides conformed to the following experimental design. Recombinant VHL and HIF polypeptides were produced separately in vitro. The HIF polypeptide was then pre-incubated with extract or a recombinant enzyme as described below, then mixed with VHL and incubated in EBC buffer (50 mM Tris pH 7.5, 150 mM NaCl, 0.5% v/v Igepal, 0.5 mM EDTA) at 4° C. for 1 hour, before immunoprecipitation with anti HA antibodies (for HA tagged VHL) or anti Gal antibodies (for Gal4HIF fusions) and analysis by PAGE (Jaakkola et al. (2001) supra).
Preincubation of C. elegans HIF-1 with worm extract or recombinant EGL-9 was for 30 min at 25° C. Preincubation of mammalian HIF-α polypeptides with cell extract or recombinant enzymes was at 37° C. for 10-30 min unless otherwise stated. For assays of recombinant enzymes, 2-oxoglutarate (2 mM), iron (100 μM), and ascorbate (2 mM) were added to the reaction buffer unless otherwise indicated. Reactions performed in hypoxia were in the stated atmospheric oxygen concentration (balance nitrogen) obtained using a controlled environment Invivo2 400 hypoxia work-station (Ruskinn Technologies) and buffers pre-equilibrated with the appropriate atmosphere. Reactions (50 μl) were performed in open Eppendorf tubes with mixing and stopped by the addition of 20 volumes desferrioxamine (100 μM}. […]

U2OS and Hep3B cells = experiment: HRE-dependent luciferase reporter assay after transient transfection of NODD/CODD plasmids; assay type: cell-based, human; details: normoxic conditions, 24 hours
Text: Since normoxic HIFα degradation is saturable ^17 and depends on sub-regions within the ODD we tested whether peptides encoding the HIF-1α amino terminal ODD (NODD) and carboxy terminal ODD (CODD) ^21 could affect HIF activity as measured by hypoxia response element (HRE)-dependent reporter gene expression. Briefly, Degradation is prevented by the NODD and CODD polypeptides competing for prolyl hydroxylation and/or VHL binding, thereby blocking subsequent ubiquitination. We constructed plasmids encoding NODD (HIF-1-α aa 343-417) or CODD (HIF-1-α aa 549-582) linked to nuclear localisation sequences and a c-myc epitope tag. These plasmids were transiently co-transfected into U2OS and Hep3B cells with an HRE-dependent luciferase reporter plasmid. […]
For reporter gene assays DNA fragments encoding HIF-1α amino acids 343-417, 380-417, 390-417, 390-410, 343-400, 530-95, 530-82, 549-82, 556-74 and 530-62 were generated by PCR using oligonucleotides containing 5′ SacII or 3′ AscI sites and inserted into a pCMV/myc/nuc (Invitrogen) derivative bearing these sites in frame with the NLS and epitope tag. […] To generate tet-operator dependent plasmids the open reading frames from the aa343-417 and aa549-82 constructs were subcloned into pUHD 10 ^34. […]

U2OS cells = U2OS cells stably transfected with doxycycline-inducible NODD or CODD; assay type: cell-based, human; details: doxycycline 0.2-3.2 μg/ml, peaking after 48 hours
Description: To explore further the therapeutic potential of NODD and CODD polypeptides to activate endogenous HIF we stably transfected U2OS cells with doxycycline-inducible NODD (doxNODD) and CODD constructs (doxCODD) encoding identical sequences to those used for transient transfections.
Cells stably transfected with NODD or CODD controlled by the tetracycline-inducible system were exposed to doxycycline. Cell extracts were prepared 0, 16, 24 and 48 hours after exposure to doxycycline. The extracts of doxNODD (HIF-1α aa343-417), doxCODD (HIF-1α aa549-82) and control cells (empty vector) were then immunoblotted for HIF-1α protein. Increased HIF-1α signals were detected from 16-48 hours following doxycycline administration in doxNODD and doxCODD cells but not in empty vector cells. Levels of HIF-1α induced by hypoxia were also measured for comparison. The endogenous HIF-1α induction was doxycycline dose (0.2-3.2 μg/ml) and time dependent, peaking after 48 hours. Maximal levels were about 20% and about 70% of HIF-1α levels seen following hypoxic or DFO treatment of the doxNODD and doxCODD cells respectively. […]
Stably transfected cell lines were generated by transfecting U2OS cells bearing the reverse tetracycline responsive transactivator ^34 and the tetKRAB silencer construct ^36 with pUHD/HIF plasmids. Following selection in G418 (1 mg/ml) individual colonies were picked. DoxNODD (F21) and doxCODD (myc19) clones expressed pUHD/HIF-1aa343-417/3NLS/c-myc and pUHD/HIF-1α aa549-82/3NLS/c-myc respectively. […]
Cell extracts were prepared in buffer (8M urea, 10% glycerol, 1% SDS, 5 mM DTT, 10 mM Tris/pH 6.8), separated by SDS-PAGE and transferred to Immobilon-P membrane (Millipore). Primary antibodies against HIF-1α, c-myc tag and HA tag were from Transduction Laboratories, Innogenex and Roche Molecular respectively. […]

VHL E3 ubiquitin ligase = molecular target: T2, VHL E3 ubiquitin ligase (Homo sapiens, UniProt P40337); experiment: VHL E3 interaction assay with 35S-labelled tat-ODD IVTT products; assay type: binding; details: after modification by cell extracts
T2 construct: expressed in transfected cells; host or cells: 786-0 cells stably transfected with pcDNA3 VHL.HA (whole extract, anti-HA immunoprecipitation)
Text: Concordant with the ubiquitination assays discussed above NODD (HIF-1α 343-417) and CODD (HIF-1α 549-582) polypeptides, but not their corresponding proline mutants (HIF-1α 343-417/P402A and HIF-1α 549-582/P564G), bound to VHL E3 ubiquitin ligase after modification by cell extracts. The ^35S-methionine labelled recombinant polypeptides therefore interacted with VHL, supporting the results of the ubiquitination experiments discussed above. The interaction was enhanced by the presence of cell extracts which promote hydroxylation of the prolines at positions 402 and 564 ^19. In contrast, no binding occurred using peptides in which prolines were mutated.
For VHL E3 interaction assays ^35S-methionine labelled HIF-1a substrates were prepared by transcription/translation using TnT7 rabbit reticulocyte lysate (Promega). 100 μM DFO was added to the reaction to suppress prolyl hydroxylase activity of the reticulocyte lysate. Substrate modification was achieved by incubation of HIF-1α translate with RCC4 cell lysate in the presence of ferrous chloride (100 μM). Interaction with VHL E3 was analysed as described previously ^21.

T2 sequence (P40337 whole entry): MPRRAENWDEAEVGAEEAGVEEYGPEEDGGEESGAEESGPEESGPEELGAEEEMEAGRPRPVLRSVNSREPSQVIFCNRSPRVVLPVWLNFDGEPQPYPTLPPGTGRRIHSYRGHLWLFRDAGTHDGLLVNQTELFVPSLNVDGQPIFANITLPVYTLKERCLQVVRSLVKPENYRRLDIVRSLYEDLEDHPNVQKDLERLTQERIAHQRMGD
T2 sequence (Q15370 whole entry partner): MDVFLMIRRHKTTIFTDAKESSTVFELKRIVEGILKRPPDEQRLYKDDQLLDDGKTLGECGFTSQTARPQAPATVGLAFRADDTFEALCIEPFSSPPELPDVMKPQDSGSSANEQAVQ
T2 sequence (Q15369 whole entry partner): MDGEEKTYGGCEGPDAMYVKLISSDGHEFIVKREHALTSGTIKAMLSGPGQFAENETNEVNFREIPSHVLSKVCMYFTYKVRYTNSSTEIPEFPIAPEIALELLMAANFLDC
T2 sequence (Q13617 whole entry partner): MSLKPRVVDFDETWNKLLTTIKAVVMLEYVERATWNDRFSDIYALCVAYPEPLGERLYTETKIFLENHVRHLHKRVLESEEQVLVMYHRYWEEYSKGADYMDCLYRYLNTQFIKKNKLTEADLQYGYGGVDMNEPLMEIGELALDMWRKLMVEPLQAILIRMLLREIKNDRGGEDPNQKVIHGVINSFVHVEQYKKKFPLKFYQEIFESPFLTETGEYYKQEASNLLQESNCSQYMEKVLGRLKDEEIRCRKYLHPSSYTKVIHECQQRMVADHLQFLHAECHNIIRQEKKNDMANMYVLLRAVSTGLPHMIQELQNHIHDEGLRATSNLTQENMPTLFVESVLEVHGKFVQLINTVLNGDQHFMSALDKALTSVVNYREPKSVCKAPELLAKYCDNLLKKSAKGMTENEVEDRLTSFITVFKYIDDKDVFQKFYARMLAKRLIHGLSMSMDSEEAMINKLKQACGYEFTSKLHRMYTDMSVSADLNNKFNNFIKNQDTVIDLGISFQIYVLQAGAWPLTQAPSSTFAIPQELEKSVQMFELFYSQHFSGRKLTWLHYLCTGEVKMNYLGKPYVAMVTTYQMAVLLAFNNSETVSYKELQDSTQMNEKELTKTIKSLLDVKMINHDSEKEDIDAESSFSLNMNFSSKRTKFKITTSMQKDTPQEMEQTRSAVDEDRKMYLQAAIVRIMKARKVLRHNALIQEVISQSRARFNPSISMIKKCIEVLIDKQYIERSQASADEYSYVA
T2 sequence (P62877 whole entry partner): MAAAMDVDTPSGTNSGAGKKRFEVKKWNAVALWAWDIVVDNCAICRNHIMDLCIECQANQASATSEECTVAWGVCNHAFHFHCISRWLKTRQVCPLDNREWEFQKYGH
T1 sequence (G5EBV0 whole entry): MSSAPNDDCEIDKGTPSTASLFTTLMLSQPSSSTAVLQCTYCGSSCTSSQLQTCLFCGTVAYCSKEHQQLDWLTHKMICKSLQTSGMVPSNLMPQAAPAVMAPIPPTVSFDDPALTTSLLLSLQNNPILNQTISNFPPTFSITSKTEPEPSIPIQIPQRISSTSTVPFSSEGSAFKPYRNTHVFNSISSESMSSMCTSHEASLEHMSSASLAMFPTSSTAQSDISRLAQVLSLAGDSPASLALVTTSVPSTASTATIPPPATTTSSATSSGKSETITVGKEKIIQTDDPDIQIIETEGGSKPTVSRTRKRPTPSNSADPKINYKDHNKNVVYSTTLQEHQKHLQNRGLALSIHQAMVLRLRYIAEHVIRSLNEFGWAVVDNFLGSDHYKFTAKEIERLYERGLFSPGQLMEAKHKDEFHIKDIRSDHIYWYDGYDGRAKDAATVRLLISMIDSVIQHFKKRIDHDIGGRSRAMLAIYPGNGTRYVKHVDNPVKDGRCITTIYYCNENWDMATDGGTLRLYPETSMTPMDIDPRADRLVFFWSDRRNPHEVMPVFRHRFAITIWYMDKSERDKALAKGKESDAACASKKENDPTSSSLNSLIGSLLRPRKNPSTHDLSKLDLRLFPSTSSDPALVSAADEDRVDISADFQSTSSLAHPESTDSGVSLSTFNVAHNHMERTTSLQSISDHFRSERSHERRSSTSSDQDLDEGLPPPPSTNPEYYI

Molecule | inhibition of clavaminate synthase (clavaminate synthase) | inhibition of HIF hydroxylase / HPH [1] | pVHL binding after treatment with cell extract in the presence of inhibitor ([2]; 1 mM) | pVHL binding after treatment with cell extract in the presence of inhibitor ([2]; 5 mM) | inhibition of worm extract activity promoting HIF-1/HA.VHL-1 interaction [3] | inhibition of HIF hydroxylase / HPH ([1]; listed as (S) oxaloalanine) | inhibitory activity on HIF-1α modification, comparison of enantiomers ([2]; 0-2000 μM, RCC4 cell extract) | HRE-dependent relative luciferase activity (U2OS and Hep3B cells) | Maximal HIF-1α level relative to hypoxic or DFO treatment (U2OS cells) | binding to VHL E3 ubiquitin ligase (VHL E3 ubiquitin ligase)
O=C(O)CNC(=O)CCS [N-(Mercaptopropionyl)glycine] | not an inhibitor | inhibitors of HPH | strong binding of pVHL | reduced the amount of pVHL binding |  |  |  |  |  | 
C[C@H](NC(=O)C(=O)O)C(=O)O [N-oxalyl-2S-alanine] |  | act as inhibitors |  |  | strongly inhibited activity | preferred inhibitor | higher inhibitory activity |  |  | 
B1 |  |  |  |  |  |  |  | increased relative luciferase activity | about 20% | bound
